Assay results: patent publication US8338472B2, “Hexahydrocyclopentyl[F]indazole carboxamides and derivatives thereof as selective glucocorticoid receptor modulators” (Merck Sharp & Dohme Corp., priority 2008, dated 2012)
Read-outs that look alike come from different tables or passages of the source.

Key:
[1] = biological target: T1, glucocorticoid receptor (GR) (Homo sapiens, UniProt P04150); assay: Ligand binding assay (GR BIND), 3H-dexamethasone displacement in MDA-MB-453 cell lysate
T1 sequence (P04150 1-777): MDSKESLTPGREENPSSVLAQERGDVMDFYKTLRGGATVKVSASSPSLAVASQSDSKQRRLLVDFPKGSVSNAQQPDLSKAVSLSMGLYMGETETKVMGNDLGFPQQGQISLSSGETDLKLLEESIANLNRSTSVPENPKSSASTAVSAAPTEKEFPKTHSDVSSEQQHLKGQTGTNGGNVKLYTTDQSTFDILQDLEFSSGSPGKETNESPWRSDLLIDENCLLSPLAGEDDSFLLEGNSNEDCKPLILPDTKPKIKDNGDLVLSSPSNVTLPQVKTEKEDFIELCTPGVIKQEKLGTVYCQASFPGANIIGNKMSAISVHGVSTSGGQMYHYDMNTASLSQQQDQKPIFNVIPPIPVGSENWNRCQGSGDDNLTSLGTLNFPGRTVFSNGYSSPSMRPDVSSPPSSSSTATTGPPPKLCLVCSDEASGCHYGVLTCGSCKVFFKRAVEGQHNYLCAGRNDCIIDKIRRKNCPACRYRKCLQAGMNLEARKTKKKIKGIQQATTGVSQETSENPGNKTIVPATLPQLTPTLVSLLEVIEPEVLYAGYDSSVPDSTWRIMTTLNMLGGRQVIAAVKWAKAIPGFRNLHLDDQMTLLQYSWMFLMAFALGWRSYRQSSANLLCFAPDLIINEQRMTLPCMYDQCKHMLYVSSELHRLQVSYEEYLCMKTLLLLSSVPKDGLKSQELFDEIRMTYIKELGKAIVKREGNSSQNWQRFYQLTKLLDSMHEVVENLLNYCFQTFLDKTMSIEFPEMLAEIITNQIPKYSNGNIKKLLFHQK

human GR = biological target: T2, human GR (Homo sapiens, UniProt P04150); assay: Transrepression Assay (GITAR), TNFα-β-lactamase reporter gene in U937 cells; format: cell-based; conditions: for EC50: inflection point, read-out: Transrepression U937 Cells GITAR IP; for EC50 / Transrepression U937 Cells GITAR Emax: U937 cells
T2 construct: U937 cells contain an endogenous glucocorticoid receptor (GR); endogenous in cells; host or cells: U937 cells stably transfected with the TNF-alpha promoter/beta-lactamase reporter
T2 sequence (P04150 1-777): T1 sequence (P04150 1-777)
Summary of the method: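 Repression of PMA (5 ng/ml final)/LPS (100 ng/ml final)-induced TNF-α promoter activity, read as β-lactamase cleavage of CCF2-AM, in stably transfected U937 cells expressing native GR. Compound added 30-45 min before stimulation, overnight (~18 hr) 37° C; normalized to 100 nM dexamethasone (100%).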

Glucocorticoid Receptor = biological target: T3, Glucocorticoid Receptor (Homo sapiens, UniProt P04150); assay: Trans-Activation Modulation of Glucocorticoid Receptor (GRAMMER), MMTV-LUC reporter gene in A549 cells; format: cell-based; conditions: for Emax: A549, A549 cells, read-out: Transactivation A549 Cells GRAMMER Emax; for Emax / Transactivation A549 Cells GRAMMER Emax: Emax relative to 300 nM dexamethasone; for EC50: inflection point, read-out: Transactivation A549 Cells GRAMMER IP; for EC50 / Transactivation A549 Cells GRAMMER Emax: A549 cells
T3 construct: These cells express large amount of the GR and are very responsive to GC treatment; endogenous in cells; host or cells: A549 cells transiently transfected with the MMTV-LUC reporter
T3 sequence (P04150 1-777): T1 sequence (P04150 1-777)
Summary of the method: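 Luciferase from a transiently transfected MMTV-LUC reporter was measured after 24 h compound exposure (≤1% DMSO) in A549 or MDA-MB-453 cells. For antagonism, the decrease of 10 nM dexamethasone-induced signal was calculated. For agonism, Emax was referenced to 300 nM dexamethasone.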

[2] = GITAR Emax minus GRAMMER Emax, Table 1
[3] = U-937, U937 cells, activity repressed by 100 nM dexamethasone = 100%, Table 1, read-out: Transrepression U937 Cells GITAR Emax
[4] = U-937, text statement, 100 nM dexamethasone = 100%, read-out: maximal activity in the transrepression assay (GITAR)
[5] = activity repressed by 100 nM dexamethasone = 100%, Table 1
[6] = compounds in the art (WO03/086294)

Row | Compound | Ki ([1]; GR BIND Ki, Table 1) [nM] | GITAR Greater than by GRAMMER % SEP (human GR; [2]) [%] | Emax (human GR; [3]) [%] | Emax (human GR; [4]) [%] | EC50 (human GR; Table 1) [nM] | Emax (Glucocorticoid Receptor; Table 1) [%] | EC50 (Glucocorticoid Receptor; Table 1) [nM] | Transrepression U937 Cells GITAR Emax (human GR; [5]) [%] | Transactivation A549 Cells GRAMMER Emax (Glucocorticoid Receptor; Table 1) [%] | Ki ([1]; GR BIND Ki, compounds in the art (WO03/086294)) [nM] | GITAR > GRAMM % SEP (human GR; GITAR Emax minus GRAMMER Emax, compounds in the art) [%] | Emax (human GR; U-937, U937 cells, activity repressed by 100 nM dexamethasone = 100%, compounds in the art, read-out: Transrepression U937 Cells GITAR Emax) [%] | EC50 (human GR; [6]) [nM] | Emax (Glucocorticoid Receptor; compounds in the art) [%] | EC50 (Glucocorticoid Receptor; [6]) [nM] | Ki ([1]; read-out: GR BIND Ki, Table 1) [nM]
1 | CO[C@H](C)CN(C)C(=O)[C@H]1CCC2=Cc3c(cnn3-c3ccc(F)cc3)C[C@@]21C [Compound 89, (4αR,5S)-1-(4-fluorophenyl)-N-[(2R)-2-methoxypropyl]-N,4α-dimethyl-1,4,4α,5,6,7-hexahydrocyclopenta[f]indazole-5-carboxamide] | 120 | 6.5 | 10.2 | > 5 | 3450 | 3.7 | 492 |  |  |  |  |  |  |  |  | 
2 | CN(CCC(F)(F)F)C(=O)[C@H]1CCC2=Cc3c(cnn3-c3ccc(F)cc3)C[C@@]21C [Compound 90, (4αR,5S)-1-(4-fluorophenyl)-N,4α-dimethyl-N-(3,3,3-trifluoropropyl)-1,4,4α,5,6,7-hexahydrocyclopenta[f]indazole-5-carboxamide] | 17.3 | 24.2 | 44.5 | > 5 | 609 | 20.3 | 565 |  |  |  |  |  |  |  |  | 
3 | CCN(CCC(F)(F)F)C(=O)[C@H]1CCC2=Cc3c(cnn3-c3ccc(F)cc3)C[C@@]21C [Compound 91, (4αR,5S)-N-ethyl-1-(4-fluorophenyl)-4α-methyl-N-(3,3,3-trifluoropropyl)-1,4,4α,5,6,7-hexahydrocyclopenta[f]indazole-5-carboxamide] | 4.5 | 30.6 | 75.1 | > 5 | 333 | 44.5 | 312 |  |  |  |  |  |  |  |  | 
4 | C[C@]12Cc3cnn(-c4ccc(F)cc4)c3C=C1CC[C@@H]2C(=O)N(CCc1ccccc1F)CC(O)C(F)(F)F (stereo partly drawn) [Compound 93, (4αR,5S)-1-(4-fluorophenyl)-N-[2-(2-fluorophenyl)ethyl]-4α-methyl-N-(3,3,3-trifluoro-2-hydroxypropyl)-1,4,4α,5,6,7-hexahydrocyclopenta[f]indazole-5-carboxamide] | 1.1 | 5.9 |  |  | 172 |  | 277 | 67.5 | 61.7 |  |  |  |  |  |  | 
5 | C[C@]12Cc3cnn(-c4ccc(F)cc4)c3C=C1CC[C@@H]2C(=O)NCc1ccccc1 [reference compound] |  |  |  |  |  |  |  |  |  | 21.1 | -59.6 | 43.8 | 4280 | 103 | 502 | 
6 | (4αR,5S)-N,N-dibutyl-1-(4-fluorophenyl)- 4α-methyl-1,4,4α,5,6,7- hexahydrocyclopenta[f]indazole-5- carboxamide [Compound 9] |  | 15.9 |  |  | 497 |  | 360 | 54.4 | 38.5 |  |  |  |  |  |  | 1

Continued, in another order:

Row | Ki ([1]; GR BIND Ki, Table 1) [nM] | GITAR Greater than by GRAMMER % SEP (human GR; [2]) [%] | Emax (human GR; [3]) [%] | Emax (human GR; [4]) [%] | EC50 (human GR; Table 1) [nM] | Emax (Glucocorticoid Receptor; Table 1) [%] | EC50 (Glucocorticoid Receptor; Table 1) [nM] | Transrepression U937 Cells GITAR Emax (human GR; [5]) [%] | Transactivation A549 Cells GRAMMER Emax (Glucocorticoid Receptor; Table 1) [%] | Ki ([1]; GR BIND Ki, compounds in the art (WO03/086294)) [nM] | GITAR > GRAMM % SEP (human GR; GITAR Emax minus GRAMMER Emax, compounds in the art) [%] | Emax (human GR; U-937, U937 cells, activity repressed by 100 nM dexamethasone = 100%, compounds in the art, read-out: Transrepression U937 Cells GITAR Emax) [%] | EC50 (human GR; [6]) [nM] | Emax (Glucocorticoid Receptor; compounds in the art) [%] | EC50 (Glucocorticoid Receptor; [6]) [nM] | Compound | Ki ([1]; read-out: GR BIND Ki, Table 1) [nM]
7 | 2.2 | 5.9 | 73.9 | > 5 | 234 | 68 | 371 |  |  |  |  |  |  |  |  | CCCN(CCC(F)(F)F)C(=O)[C@H]1CCC2=Cc3c(cnn3-c3ccc(F)cc3)C[C@@]21C [Compound 88, (4αR,5S)-1-(4-fluorophenyl)-4α-methyl-N-propyl-N-(3,3,3-trifluoropropyl)-1,4,4α,5,6,7-hexahydrocyclopenta[f]indazole-5-carboxamide] | 
8 | 1.5 | 4.7 |  |  | 143 |  | 285 | 44.9 | 40.2 |  |  |  |  |  |  | C[C@]12Cc3cnn(-c4ccc(F)cc4)c3C=C1CC[C@@H]2C(=O)N(CCc1ccccc1F)CC(O)C(F)(F)F (stereo partly drawn) [Compound 92, (4αR,5S)-1-(4-fluorophenyl)-N-[2-(2-fluorophenyl)ethyl]-4α-methyl-N(3,3,3-trifluoro-2-hydroxypropyl)-1,4,4α,5,6,7-hexahydrocyclopenta[f]indazole-5-carboxamide] | 
9 | 1.8 | 8.0 | 51.8 |  | 531 | 43.8 | 363 |  |  |  |  |  |  |  |  | C[C@]12Cc3cnn(-c4ccc(F)cc4)c3C=C1CC[C@@H]2C(=O)N(CCc1ccccc1F)CC(O)CC(F)(F)F (stereo partly drawn) [Compound 94, (4αR,5S)-l-(4-fluorophenyl)-N-[2-(2-fluorophenyl)ethyl]-4α-methyl-N-(4,4,4-trifluoro-2-hydroxybutyl)-1,4,4α,5,6,7-hexahydrocyclopenta[f]indazole-5-carboxamide] | 
10 | 1 | 7.3 |  |  | 282 |  | 374 | 54.2 | 46.9 |  |  |  |  |  |  | C[C@]12Cc3cnn(-c4ccc(F)cc4)c3C=C1CC[C@@H]2C(=O)N(CCc1ccccc1F)CC(O)CC(F)(F)F (stereo partly drawn) [Compound 95, (4αR,5S)-1-(4-fluorophenyl)-N-[2-(2-fluorophenyl)ethyl]-4α-methyl-N-(4,4,4-trifluoro-2-hydroxybutyl)-1,4,4α,5,6,7-hexahydrocyclopenta[f]indazole-5-carboxamide] | 
